Where “and” joins values, the source holds several entries; their conditions need not be identical. Identical values can stand only once. Like-named read-outs stand apart in the source and are kept apart here. Each block holds one compound with its values, some of them ahead of it.
Target: T1, human 17β-HSD2 (Homo sapiens, UniProt P37059)
T1 construct: expressed in transfected cells; host or cells: HEK-293 (ATCC), used as cell lysate
T1 sequence (P37059 1-387): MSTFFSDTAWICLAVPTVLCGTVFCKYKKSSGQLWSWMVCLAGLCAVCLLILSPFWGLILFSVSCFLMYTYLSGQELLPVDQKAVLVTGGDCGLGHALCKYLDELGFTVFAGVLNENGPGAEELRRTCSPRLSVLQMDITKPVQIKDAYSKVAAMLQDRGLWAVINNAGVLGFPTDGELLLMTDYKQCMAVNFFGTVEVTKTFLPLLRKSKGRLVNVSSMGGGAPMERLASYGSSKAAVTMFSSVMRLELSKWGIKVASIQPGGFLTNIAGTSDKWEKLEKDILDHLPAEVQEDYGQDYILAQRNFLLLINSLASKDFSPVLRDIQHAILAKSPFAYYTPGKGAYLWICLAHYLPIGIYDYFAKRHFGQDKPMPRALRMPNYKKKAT
Experiment: 17β-HSD2 activity assay using lysates of HEK-293 cells expressing the recombinant human enzyme;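 note: conversion of tritium-labelled estradiol (200 nM, with 500 µM NAD+, 10 min) quantified after TLC separation by scintillation counting, at least three independent measurements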
Assay type: biochemical
Settings: for remaining activity at 20 µM: read-out: 17β-HSD2 remaining activity at 20 μM (% of control); for 17β-HSD2 inhibition (in words): tested at 20 μM; for IC50: HEK-293 lysates, 200 nM estradiol, 500 μM NAD+, 10 min 37 °C

[1] = 20 μM compound, % of vehicle control

remaining activity at 20 µM [1]: 80 ± 10% | 17β-HSD2 inhibition (in words): did not inhibit
Compound: NC(=O)Cc1ccc(O)c(Cl)c1 [S11, 2-(3-chloro-4-hydroxyphenyl)acetamide]

remaining activity at 20 µM [1]: 58 ± 13%
Compound: O=C(O)/C=C/c1ccc(O)c(O)c1 [S9, caffeic acid]

remaining activity at 20 µM [1]: 110 ± 10% | 17β-HSD2 inhibition (in words): did not inhibit
Compound: NC(=O)Cc1ccc(O)cc1 [S16, 2-(4-hydroxyphenyl)acetamide]

remaining activity at 20 µM [1]: 37 ± 3% | 17β-HSD2 inhibition (in words): moderately active
Compound: COCCNC(=O)Cc1ccc(O)c(Cl)c1 [compound 14, 2-(3-chloro-4-hydroxyphenyl)-N-(2-methoxyethyl)acetamide]

remaining activity at 20 µM [1]: 60 ± 6%
Compound: CCOC(=O)c1cc(O)c(O)c(O)c1 [S1, ethyl gallate]

remaining activity at 20 µM [1]: 33 ± 6% | 17β-HSD2 inhibition (in words): moderately active
Compound: CCCCNC(=O)Cc1ccc(O)c(Cl)c1 [compound 15, N-butyl-2-(3-chloro-4-hydroxyphenyl)acetamide]

17β-HSD2 remaining activity at 20 μM (% of control) [1]: 59 ± 7%
Compound: COC(=O)c1cc2c(c(O)c1OC)[C@H](C)C[C@@H](O)[C@H]2[C@@H](C)CCC=C(C)C [S18, methyl (5R,7R,8S)-4,7-dihydroxy-3-methoxy-5-methyl-8-((S)-6-methylhept-5-en-2-yl)-5,6,7,8-tetrahydronaphthalene-2-carboxylate]

remaining activity at 20 µM [1]: 56 ± 5%
Compound: CCCCOC(=O)c1cc(O)c(O)c(O)c1 [S3, butyl gallate]

17β-HSD2 remaining activity at 20 μM (% of control) [1]: 64 ± 5%
Compound: COc1cc(C)cc2oc3ccc(O)c(C(=O)O)c3c(=O)c12 [S10, 2-hydroxy-8-methoxy-6-methyl-9-oxo-9H-xanthene-1-carboxylic acid]

remaining activity at 20 µM [1]: 97 ± 10%
Compound: O=C(/C=C/c1ccc(O)c(O)c1)O[C@@H]1C[C@](O)(C(=O)O)C[C@@H](O)[C@H]1O [S8, chlorogenic acid]

17β-HSD2 remaining activity at 20 μM (% of control) [1]: 85 ± 11%
Compound: pestalactam A [S13]

The remaining lines, values behind:

Compound: COc1cc(/C=C/C(=O)O)ccc1O [S5, ferulic acid]
17β-HSD2 remaining activity at 20 μM (% of control) [1]: 79 ± 10%

Compound: C=CCc1ccc(O)c(OC)c1 [S4, eugenol]
remaining activity at 20 µM: 94 ± 11%

Compound: O=C(/C=C/c1ccc(O)c(O)c1)c1ccc(O)cc1O [compound 10, butein]
IC50: 7.3 ± 2.7 µM | fold less active than 6 (17β-HSD2 IC50) (compared with compound 6): 20 fold

Compound: COc1cc(CCC(C)=O)ccc1O [S2, vanillyl acetone]
17β-HSD2 remaining activity at 20 μM (% of control) [1]: 106 ± 9%

Compound: CCN(CC)CCCC(C)Nc1ccnc2cc(Cl)ccc12 (racemic) [S17, (±)-chloroquine, reference compound]
17β-HSD2 remaining activity at 20 μM (% of control) [1]: 111 ± 13%

Compound: NC(=O)c1cccnc1 [S7, nicotinamide]
remaining activity at 20 µM [1]: 106 ± 12%

Compound: O=C(/C=C/c1ccc(O)cc1)c1ccc(O)cc1O [compound 6, isoliquiritigenin]
IC50: 0.36 ± 0.08 µM

Compound: O=C(O)Cc1ccc(O)cc1 [S15, 2-(4-hydroxyphenyl)acetic acid]
remaining activity at 20 µM [1]: 108 ± 5% | 17β-HSD2 inhibition (in words): did not inhibit

Compound: COc1cc(CNC(=O)CCCC/C=C/C(C)C)ccc1O [S6, capsaicin]
remaining activity at 20 µM: 53 ± 6%

Compound: CC1(C)CC[C@]2(C(=O)O)CC[C@]3(C)C(=CC[C@@H]4[C@@]5(C)CC[C@H](O)C(C)(C)[C@@H]5CC[C@]43C)[C@@H]2C1 [compound 2, oleanolic acid]
remaining activity at 20 µM: 49 ± 6%

Compound: O=C(O)Cc1ccc(O)c(Cl)c1 [S12, 2-(3-chloro-4-hydroxyphenyl)acetic acid]
remaining activity at 20 µM: 88 ± 7%

Compound: COc1cc([C@H]2OC[C@H]3[C@@H]2CO[C@@H]3c2ccc(O)c(OC)c2)ccc1O [compound 7, pinoresinol]
remaining activity at 20 µM: 42 ± 5%

Compound: COc1cc(/C=C2\N=C(N)NC2=O)ccc1O [S14, polyandrocarpamine A]
remaining activity at 20 µM [1]: 101 ± 7%

Compound: COc1cc(-c2cc(=O)c3c(O)c(OC)c(O)cc3o2)ccc1O [compound 5, jaceosidin]
IC50: 9.3 µM and 9.27 µM | classification (17β-HSD2 inhibition) (flavonoid SAR model, Table 4): active

Source: publication PMC5411959, “Potential Antiosteoporotic Natural Product Lead Compounds That Inhibit 17β-Hydroxysteroid Dehydrogenase Type 2” (Journal of Natural Products, 2017)
